Measurements taken from patent US6780972B2, “Method for the synthesis of peptide salts, their use and the pharmaceutical preparations, containing peptide salts” (Zentaris GmbH, priority 2000, dated 2004).
Non-standard residues stand in square brackets, D forms with d. Residues, ends and D or L forms follow the SMILES beside them. dPhe(4-Cl) = N[C@H](Cc1ccc(Cl)cc1)C(=O)O; d2Nal = N[C@H](Cc1ccc2ccccc2c1)C(=O)O; dCit = NC(=O)NCCC[C@@H](N)C(=O)O; d3Pal = N[C@H](Cc1cccnc1)C(=O)O

Tests used:
[1] = Cetrorelix plasma concentration and bioavailability after administration of the Cetrorelix embonate (2:1) lyophilysate in man (Clinical Phase I); type: in vivo
Method: (§1) The Cetrorelix embonate (2:1) lyophilysate (30 mg), obtained according to Example 1, is resuspended in 2 mL of water for injection purposes and can then be administered parenterally, preferable subcutaneously (s.c.) or intramuscularly (i.m.)
(§2) For the s.c. administration, the bioavailability of the Cetrorelix embonate (2:1) is about 30 to 50% (100%=intravenously administered Cetrolix acetate). […] The duration of the effect depends on the dose; for a dose of 30 to 150 mg, it is 2 to 8 weeks or longer. The inventive Cetrorelix embonate (2:1) lyophilysate has already been investigated in Clinical Phase I in man.
(§3) The period of action exceeded 700 hours. The plasma level was constant at about 2 ng/mL 150 hours after the administration. The bioavailability was abut 40%.

[2] = Duration of effect / period of action after administration in man; type: in vivo
Method: as §1, §2, §3

CC(=O)N[C@H](Cc1ccc2ccccc2c1)C(=O)N[C@H](Cc1ccc(Cl)cc1)C(=O)N[C@H](Cc1cccnc1)C(=O)N[C@@H](CO)C(=O)N[C@@H](Cc1ccc(O)cc1)C(=O)N[C@H](CCCNC(N)=O)C(=O)N[C@@H](CC(C)C)C(=O)N[C@@H](CCCNC(=N)N)C(=O)N1CCC[C@H]1C(=O)N[C@H](C)C(N)=O [Cetrorelix embonate (2:1), Cetrorelix embonate] (Ac-[d2Nal][dPhe(4-Cl)][d3Pal]SY[dCit]LRP[dA]-NH2; N-terminus and C-terminus assumed)
burst effect (ca. 100 ng/mL) ([1]; 60 mg in man, FIG. 1): could not be detected | bioavailability ([1]; human, in vivo, subcutaneous, s.c. administration, 100% = intravenously administered Cetrolix acetate): 30 to 50% | bioavailability ([1]; human, plasma, 60 mg in man, FIG. 1): ~40% | level at 150 h ([1]; human, plasma, 60 mg in man, constant 150 hours after the administration, FIG. 1): ~2 ng/mL | burst effect ([1]; in patients): slight or even absent | period of action ([2]; 60 mg in man, FIG. 1): exceeded 700 hours | duration of the effect ([2]; dose of 30 to 150 mg, depends on the dose, 'or longer'): 2 to 8 weeks
